Reference: patent US5658897A, “Cyclopentane(ene) heptanoic or cyclopentane(ene) heptenoic acid, 2-hydrocarbyl phosphinyloxyalkyl or phosphonamidoalkyl as therapeutic agents” (Allergan, priority 1996, dated 1997)
Entries after “also recorded” stand apart in the source; their conditions may differ. Like-named read-outs stand apart in the source and are kept apart here. Values belong to the molecule of their own block, whether it stands above or below them.

Experiments:
[1] = system: EP3; assay: EP3 activity in isolated smooth muscle preparations; conditions: read-out: EC50 (nM) EP3
[2] = target: EP4 (Oryctolagus cuniculus, UniProt Q28691); conditions: for IC25: read-out: IC25 EP4
Sequence of EP4 (Q28691 whole entry): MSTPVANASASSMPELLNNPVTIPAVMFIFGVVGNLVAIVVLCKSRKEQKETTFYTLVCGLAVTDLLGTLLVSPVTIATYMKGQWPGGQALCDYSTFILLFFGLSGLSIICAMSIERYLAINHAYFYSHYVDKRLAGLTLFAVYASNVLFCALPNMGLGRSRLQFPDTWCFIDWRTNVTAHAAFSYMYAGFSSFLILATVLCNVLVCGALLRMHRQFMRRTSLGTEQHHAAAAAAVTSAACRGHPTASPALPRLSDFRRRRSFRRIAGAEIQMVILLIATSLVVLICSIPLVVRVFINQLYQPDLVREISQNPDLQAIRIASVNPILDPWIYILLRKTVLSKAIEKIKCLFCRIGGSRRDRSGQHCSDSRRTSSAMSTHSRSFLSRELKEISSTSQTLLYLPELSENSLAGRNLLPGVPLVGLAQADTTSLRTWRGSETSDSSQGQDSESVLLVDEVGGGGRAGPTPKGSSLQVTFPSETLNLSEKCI

[3] = target: FP receptor (Felis catus, UniProt A0ABI7XJ69); assay: FP activity, contraction of the isolated feline iris sphincter; conditions: read-out: EC50 (nM) FP
Sequence of FP receptor (A0ABI7XJ69 1-366): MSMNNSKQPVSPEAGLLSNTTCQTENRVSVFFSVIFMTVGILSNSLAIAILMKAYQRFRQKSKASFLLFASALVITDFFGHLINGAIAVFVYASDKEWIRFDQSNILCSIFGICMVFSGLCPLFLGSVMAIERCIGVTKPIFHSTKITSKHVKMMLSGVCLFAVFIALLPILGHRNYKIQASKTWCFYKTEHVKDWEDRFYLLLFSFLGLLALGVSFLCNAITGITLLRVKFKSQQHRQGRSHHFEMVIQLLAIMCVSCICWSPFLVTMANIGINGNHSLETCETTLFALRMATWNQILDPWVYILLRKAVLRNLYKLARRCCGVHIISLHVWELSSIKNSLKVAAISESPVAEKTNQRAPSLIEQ

[4] = system: DP/EP2; assay: DP/EP2 activity in isolated smooth muscle preparations; conditions: read-out: EC50 (nM) DP/EP2
[5] = cited from earlier work; for ocular hypotensive activity: in vivo
[6] = system: intraocular pressure in the dog; assay: Dog intraocular pressure by applanation pneumatonometry; type: in vivo; conditions: 0.1%, 25 μl to ocular surface
Protocol: The effects of certain of the compounds of the working examples on intraocular pressure are also measured. The compounds of Examples 3 and 7 are prepared at 0.1% w/v concentration in a vehicle comprising 0.1% polysorbate 80 and 10 mM tris (hydroxy methyl) aminomethane hydrochloride (TRIS) base. Dogs are treated by administering 25 μl to the ocular surface, while the contralateral eye receives vehicle as a control. Intraocular pressure is measured by applanation pneumatonometry. Dog intraocular pressure is measured immediately before drug administration and at 2, 4, 6 and 24 hours thereafter. Each of the compounds tested lower intraocular pressure in the dog model.

[7] = system: ocular surface; conditions: cited from earlier work
[8] = system: EP1; assay: EP1 activity in isolated smooth muscle preparations; conditions: read-out: EC50 (nM) EP1
[9] = target: T1, TP (Rattus norvegicus, UniProt P34978)
T1 sequence (P34978 1-341): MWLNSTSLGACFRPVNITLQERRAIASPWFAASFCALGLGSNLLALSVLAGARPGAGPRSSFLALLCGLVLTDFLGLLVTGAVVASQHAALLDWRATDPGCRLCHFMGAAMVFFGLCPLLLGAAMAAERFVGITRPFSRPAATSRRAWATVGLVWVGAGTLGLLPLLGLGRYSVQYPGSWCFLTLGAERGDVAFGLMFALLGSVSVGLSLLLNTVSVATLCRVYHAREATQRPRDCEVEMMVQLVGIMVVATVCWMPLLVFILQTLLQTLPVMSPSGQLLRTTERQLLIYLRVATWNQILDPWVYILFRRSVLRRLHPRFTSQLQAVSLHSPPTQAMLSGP

EC50 [1]: > 10000 nM
FP/EP4 Ratio [2]: > 27
IC25 [2]: 0.365 µM
EC50 [3]: > 10000 nM
EC50 [4]: > 10000 nM
SMILES: COC(=O)CCC/C=C\C[C@@H]1[C@@H](COP(=O)(O)CCc2ccccc2)[C@H](O)C[C@@H]1O

EC50 [3]: > 10000 nM
SMILES: O=C(O)CCC/C=C\C[C@@H]1[C@@H](COP(=O)(O)CCc2ccccc2)[C@H](O)C[C@@H]1O

SMILES: CCOP(=O)(CCc1ccccc1)OC[C@@H]1[C@@H](C/C=C\CCCC(=O)O)[C@@H](O)C[C@H]1O (some centres unmarked)
FP/EP4 Ratio [2]: > 0.15
IC25 [2]: 66.3 µM
EC50 [3]: > 10000 nM

SMILES: COP(=O)(CCc1ccccc1)NC[C@@H]1[C@@H](C/C=C\CCCC(=O)O)[C@@H](O)C[C@H]1O (some centres unmarked)
FP/EP4 Ratio [2]: 2.8
IC25 [2]: 0.767 µM
EC50 [3]: 2140 nM

SMILES: CCCCC[C@@H](/C=C/[C@@H]1[C@@H](C/C=C\CCCC(=O)O)[C@@H](O)C[C@H]1OC(=O)C(C)(C)C)OC(=O)C(C)(C)C [11,15-dipivaloyl PGF2α]
ocular hypotensive activity [5]: known to have ocular hypotensive activity

SMILES: COP(=O)(CCc1ccccc1)OC[C@@H]1[C@@H](C/C=C\CCCC(=O)O)[C@@H](O)C[C@H]1O (stereo partly drawn) [Example 3, 7-[3α,5α-Dihydroxy-2-β-[[methoxy(2-phenylethyl)phosphinyl]oxymethyl]cyclopentyl]-5Z-heptenoic acid]
Decrease in IOP (mm Hg) at 2 HR [6]: -1.1 mm Hg
Decrease in IOP (mm Hg) at 4 HR [6]: -2.9 mm Hg
Decrease in IOP (mm Hg) at 6 HR [6]: -3.5 mm Hg
Decrease in IOP (mm Hg) at 24 HR [6]: 0.4 mm Hg

SMILES: COC(=O)CCC/C=C\C[C@@H]1[C@@H](CNP(=O)(CCc2ccccc2)OC)[C@H](O)C[C@@H]1O (some centres unmarked) [Example 7]
Decrease in IOP (mm Hg) at 2 HR [6]: -3.3 mm Hg
Decrease in IOP (mm Hg) at 4 HR [6]: -4.1 mm Hg
Decrease in IOP (mm Hg) at 6 HR [6]: -5.1 mm Hg
Decrease in IOP (mm Hg) at 24 HR [6]: -3.5 mm Hg

SMILES: CCCCC[C@H](O)/C=C/[C@H]1[C@H](O)CC(=O)[C@@H]1C/C=C\CCCC(=O)O [PGE2]
ocular hypotensive activity [5]: possess ocular hypotensive activity; also recorded: highly effective ocular hypotensive agents

SMILES: CCCCC[C@H](O)/C=C/[C@@H]1[C@@H](CCCCCCC(=O)O)[C@@H](O)C[C@H]1O [PGF1α]
ocular hypotensive activity [5]: highly effective ocular hypotensive agents

SMILES: CCCCC[C@H](O)/C=C/[C@@H]1[C@@H](C/C=C\CCCC(=O)O)[C@@H](O)C[C@H]1O [PGF2α]
ocular surface side effects ([7]; in vivo): ocular surface (conjunctival) hyperemia and foreign-body sensation

SMILES: COP(=O)(CCc1ccccc1)OC[C@@H]1[C@@H](C/C=C\CCCC(=O)O)[C@@H](O)C[C@H]1O (some centres unmarked) [drawing 10]
EC50 [1]: 575 nM
EC50 [3]: 195 nM
EC50 [8]: 10000 nM
EC50 [9]: > 10 µM
EC50 [4]: > 10000 nM

SMILES: COC(=O)CCC/C=C\C[C@@H]1[C@@H](CNP(=O)(CCc2ccccc2)OC)[C@H](O)C[C@@H]1O (some centres unmarked) [drawing 14]
EC50 [1]: > 10000 nM
EC50 [3]: 252 nM
EC50 [9]: > 10 µM

SMILES: CCCCC[C@H](O)/C=C/[C@@H]1[C@@H](C/C=C\CCCC(=O)OC(C)C)[C@@H](O)C[C@H]1O [isopropyl ester of PGF2α]
hypotensive potency versus the parent compound PGF2α ([5]; attributed to more effective penetration through the cornea): significantly greater hypotensive potency than the parent compound
ocular hypotensive activity [5]: the most potent ocular hypotensive agent ever reported
ocular surface side effects ([7]; topical ocular use, humans): ocular surface (conjunctival) hyperemia and foreign-body sensation
